The source made the active and inactive calls. The calls are words filed in the database; no cut-off is given here.

The subject of one test is A2780. As to the kind of experiment: Growth inhibition of human A2780 cells by crystal violet assay. The format is functional, cell-based.
The nature of test [1]: Growth inhibition of cDDP-resistant human C13 cells by crystal violet assay. The format is functional, cell-based.
Test [2] can be described thus: Growth inhibition of cDDP-resistant human A2780/CP70 cells by crystal violet assay. Type of test: functional, cell-based.
The target in test [3] is T1, Thymidylate synthase (Homo sapiens, UniProt P04818). Put plainly: Inhibition of human thymidylate synthase expressed in Escherichia coli incubated for 1 hr by spectrophotometry.
Target sequence in this assay (P04818 whole entry): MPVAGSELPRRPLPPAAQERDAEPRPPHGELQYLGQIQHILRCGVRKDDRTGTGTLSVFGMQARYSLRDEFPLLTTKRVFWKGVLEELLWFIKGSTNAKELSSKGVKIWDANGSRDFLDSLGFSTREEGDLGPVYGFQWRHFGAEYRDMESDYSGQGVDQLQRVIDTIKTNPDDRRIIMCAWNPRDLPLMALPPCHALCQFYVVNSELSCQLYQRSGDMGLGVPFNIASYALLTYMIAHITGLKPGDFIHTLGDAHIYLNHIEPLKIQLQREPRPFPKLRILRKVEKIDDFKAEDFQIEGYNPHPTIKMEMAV
In test [4] the test system is 2008. Put plainly: Growth inhibition of human 2008 cells by crystal violet assay. Type of test: functional, cell-based.
For test [5], the target named is T1, Thymidylate synthase. Put plainly: Inhibition of human thymidylate synthase expressed in Escherichia coli at 25 uM incubated for 1 hr by spectrophotometry.
Target sequence in this assay (P04818 2-313 limits assumed): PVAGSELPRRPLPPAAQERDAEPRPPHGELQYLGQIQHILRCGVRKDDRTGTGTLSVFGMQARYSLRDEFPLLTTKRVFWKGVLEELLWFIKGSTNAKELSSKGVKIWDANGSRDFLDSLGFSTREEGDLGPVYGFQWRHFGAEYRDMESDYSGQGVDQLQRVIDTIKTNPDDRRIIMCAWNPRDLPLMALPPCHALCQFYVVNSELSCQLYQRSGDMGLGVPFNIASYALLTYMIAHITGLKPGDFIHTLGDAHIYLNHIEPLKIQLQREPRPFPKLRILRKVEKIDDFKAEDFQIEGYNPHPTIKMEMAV
For another test, the system named is Vero. Put plainly: Growth inhibition of african green monkey Vero cells by crystal violet assay. Type of test: cell-based. Particulars: Chlorocebus sabaeus.
Test [6] addresses T1, Thymidylate synthase. As to the kind of experiment: Mixed inhibition of human thymidylate synthase expressed in Escherichia coli incubated for 1 hr using varying mTHF and dUMP levels by spectrophotometry based Lineweaver-Burk method.
Target sequence in this assay (P04818 2-313 limits assumed): as above
Test [7] deals with T1, Thymidylate synthase. As to the kind of experiment: Inhibition of human thymidylate synthase expressed in Escherichia coli incubated for 1 hr using varying dUMP levels by spectrophotometry based Lineweaver-Burk method.
Target sequence in this assay (P04818 whole entry): as the sequence (P04818 whole entry) above
Test [8] deals with T1, Thymidylate synthase. Put plainly: Inhibition of human thymidylate synthase expressed in Escherichia coli incubated for 1 hr assessed as reduction in mTHF Vmax value by spectrophotometry based Lineweaver-Burk method relative to untreated control.
Target sequence in this assay (P04818 2-313 limits assumed): as the sequence (P04818 2-313 limits assumed) above
Test [9] deals with T1, Thymidylate synthase. As to the kind of experiment: Inhibition of human thymidylate synthase expressed in Escherichia coli at 100 uM incubated for 1 hr by spectrophotometry.
Target sequence in this assay (P04818 2-313 limits assumed): as above
Test [10] addresses T1, Thymidylate synthase. As to the kind of experiment: Inhibition of human thymidylate synthase expressed in Escherichia coli at 50 uM incubated for 1 hr by spectrophotometry.
Target sequence in this assay (P04818 2-313 limits assumed): as above
Test [11] relates to 2008. Put plainly: Increase in ROS production in human 2008 cells at 20 uM incubated for 72 hrs by CM-H2DCFDA dye based fluorometry. Type of test: functional.
Test [12] deals with C13. Put plainly: Effect on thymidylate synthase protein expression in cDDP-resistant human C13 cells at 20 to 40 uM incubated for 72 hrs by Western blotting. The format is functional, cell-based.
The subject of test [13] is C13. Put plainly: Increase in ROS production in cDDP-resistant human C13 cells at 20 uM incubated for 72 hrs by CM-H2DCFDA dye based fluorometry. Type of test: functional, cell-based.
Test [14] deals with 2008. Put plainly: Increase in ROS production in human 2008 cells at 40 uM incubated for 72 hrs by CM-H2DCFDA dye based fluorometry. Type of test: functional.
The test system of test [15] is C13. Put plainly: Inhibition of DHFR protein expression in cDDP-resistant human C13 cells at 20 uM incubated for 72 hrs by Western blotting. The format is functional, cell-based.
For test [16], the system named is 2008. As to the kind of experiment: Inhibition of DHFR protein expression in human 2008 cells at 40 uM incubated for 72 hrs by Western blotting. Particulars: Homo sapiens, 2008, 72 h. The format is functional.
The test system of test [17] is 2008. As to the kind of experiment: Inhibition of DHFR protein expression in human 2008 cells at 20 uM incubated for 72 hrs by Western blotting. To be noted: Homo sapiens, 2008, 72 h. The format is functional.
Test [18] deals with C13. Put plainly: Inhibition of DHFR protein expression in cDDP-resistant human C13 cells at 40 uM incubated for 72 hrs by Western blotting. The format is functional, cell-based.
The test system of test [19] is C13. As to the kind of experiment: Increase in ROS production in cDDP-resistant human C13 cells at 40 uM incubated for 72 hrs by CM-H2DCFDA dye based fluorometry. The format is functional, cell-based.
The subject of test [20] is 2008. As to the kind of experiment: Effect on thymidylate synthase protein expression in human 2008 cells at 20 to 40 uM incubated for 72 hrs by Western blotting. Type of test: functional, cell-based.

Regarding `CCCCCn1c(=O)c(C(=O)Nc2ccc(N)cc2)c(O)c2ccccc21`, the IC50 in the test with A2780 was 4.9 µM; in test [1] it was 9.2 µM; in test [2], 12.3 µM; against Thymidylate synthase [3], 71 µM; in the test on 2008 [4] it was 8.8 µM; in the test on Vero, 10.2 µM. Also, the inhibition against Thymidylate synthase [5] amounted to 41%.
Take `O=C(CC1S/C(=N\N=C\c2ccccc2O)N=C1O)Nc1cccc(C(F)(F)F)c1` (configuration not stated): the IC50 with A2780 is 19.4 µM; in test [1], 28.3 µM; in test [2], 36.4 µM; on Thymidylate synthase [3], 90 µM; with 2008 [4] it was 21.1 µM; in the test on Vero, 30.3 µM. Moreover, at Thymidylate synthase [6], the inhibition entry was “Active”. In addition, on Thymidylate synthase [7], the Ki came out at 2.5 µM. Besides, the inhibition is 60% at Thymidylate synthase [8] and 33% against Thymidylate synthase [5].
With `O=c1[nH]cc(F)c(=O)[nH]1` [FLUOROURACIL], the IC50 with A2780 was determined as 5.1 µM; in test [1], 8.5 µM; in test [2], 12.3 µM; in the test with 2008 [4] it was 4.2 µM; in the test on Vero, 4.5 µM.
Turning to `CCN(CC)CCOC(=O)c1ccc(NS(=O)(=O)c2ccc(C(C)(C)C)cc2)cc1`, the IC50 (in [1]; in the test with 2008 [4]) was more than 60 µM throughout. This compound also registered an inhibition on Thymidylate synthase [9] of 15%.
As for `Cc1ccc(C(=O)C2=C(O)C(=O)N(CCN(C)C)C2c2ccc(OCC(N)=O)cc2)o1` (configuration not stated), the half-maximal inhibitory concentration (IC50) in the test with A2780 was 16.4 µM; in test [1] it was more than 80 µM; in [2], 39.5 µM; with 2008 [4], 37.4 µM; with Vero, more than 80 µM. Further, the inhibition at Thymidylate synthase [9] stood at 16%.
On to `COc1ccc(C)cc1NC(=O)C(=O)N/N=C/c1ccc(OCC(N)=O)cc1`, for which the IC50 in [1] was more than 60 µM; at Thymidylate synthase [3] it was 112 µM; with 2008 [4], more than 60 µM. The same compound displayed an inhibition at Thymidylate synthase [10] of 35%.
With `O=C(NC(=O)c1cn(CCNCCO)c(=O)[nH]c1=O)OCc1ccccc1`, the half-maximal inhibitory concentration (IC50) in the test with A2780 was 6.6 µM; in [1], 56.8 µM; in test [2], 16.5 µM; against Thymidylate synthase [3], 619 µM; in the test on 2008 [4], 24.1 µM; with Vero, more than 80 µM. Further, the “fold change (FC)” value with 2008 [11] and in the test with 2008 [14] was 1.5 each time. For the same compound, the inhibition at Thymidylate synthase [9] stood at 36%. In addition, the outcome in the test on C13 [12], in the test on C13 [13], in the test on C13 [19] and in the test on 2008 [20] was inactive. The inhibition entry in the test on C13 [15] and in the test on C13 [18] was “inactive” in each case. For the same compound, testing at 40 µM in the test with 2008 [16] gave an inhibition of 60%. At 20 µM the inhibition in the test with 2008 [17] was 40%.

Source of the values: ChEMBL document CHEMBL2177012, “Inhibitor of ovarian cancer cells growth by virtual screening: a new thiazole derivative targeting human thymidylate synthase” (J Med Chem, 2012).
